From US20230011869A1 (Hoffmann-La Roche Inc., priority 2018, published 2023) come the findings set out here.

Where a name gives a salt, the structure may show the parent alone. Read-outs that look alike come from different tables or passages of the source.

The test concerns Acinetobacter baumannii ATCC17978. Kind of test: Antimicrobial susceptibility testing: 90% growth inhibitory concentration (IC90) determination, Iso-Sensitest broth. The test is classed as cell-based. The method, boiled down: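 A. baumannii ATCC17978 grown in Iso-Sensitest broth across 10 compound concentrations at 35±2 °C.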
Setting [1] is: Acinetobacter baumannii, ATCC17978, 16 h, read-out: ATCC17978 IC90, 90% growth inhibitory concentration, Acinetobacter baumannii ATCC17978, Iso-Sensitest broth, OD 600 nm over 16 h.
Where [2] appears, read: 90% growth inhibitory concentration, Acinetobacter baumannii ATCC17978, Iso-Sensitest broth, OD 600 nm over 16 h, read-out: ATCC17978 IC90.

On to `Cc1cc(Nc2nccn3c(-c4ccc(OC(F)F)cc4)cnc23)ccc1C(=O)N1CCN(C(=O)[C@@H](N)CCC(=O)O)CC1` [Example 272, (4S)-4-amino-5-[4-[4-[[3-[4-(difluoromethoxy)phenyl]imi-dazo[1,2-a]pyrazin-8-yl]amino]-2-methylbenzoyl]piperazin-1-yl]-5-oxopentanoic acid; hydrochloride], for which, under setting [1], the IC90 was found to be 2.2 µM.

As to `COc1ccc(-c2cnc3c(Nc4ccc(C(=O)N5CCC(C(=O)N6CCN(C)C(C(=O)O)C6)CC5)c(C)c4)nccn23)c(F)c1F` (stereo not drawn) [Example 273, 4-[1-[4-[[3-(2,3-difluoro-4-methoxyphenyl)imidazo[1,2-a]pyrazin-8-yl]amino]-2-methylbenzoyl]piperidine-4-carbonyl]-1-methylpiperazine-2-carboxylic acid], the IC90 under setting [2] amounted to 2.4 µM. With `Cc1cc(Nc2nccn3c(-c4ccc(OCC#CCN)c(F)c4)cnc23)ccc1C(=O)N1CCC(CNC(=O)OC(C)(C)C)CC1` [Example 274, tert-butyl N-[[1-[4-[[3-[4-(4-aminobut-2-ynoxy)-3-fluorophenyl]imidazo[1,2-a]pyrazin-8-yl]amino]-2-methylbenzoyl]piperidin-4-yl]methyl]carbamate], the IC90 under setting [2] stood at 2.8 µM. On to `Cc1cc(Nc2nccn3c(-c4ccc(OC(F)F)cc4)cnc23)ccc1C(=O)N1CCN(C(=O)[C@H](N)CCC(=O)O)CC1` [Example 275, (4R)-4-amino-5-[4-[4-[[3-[4-(difluoromethoxy)phenyl]imi-dazo[1,2-a]pyrazin-8-yl]amino]-2-methylbenzoyl]piperazin-1-yl]-5-oxopentanoic acid; hydrochloride], for which the IC90 under setting [1] turned out to be 3.1 µM. As to `Cc1cc(Nc2nccn3c(-c4ccc(OC(F)F)cc4)cnc23)ccc1C(=O)N1CCN(C(=O)c2cccc(S(=O)(=O)O)c2)CC1` [Example 276, 3-[4-[4-[[3-[4-(difluoromethoxy)phenyl]imi-dazo[1,2-a]pyrazin-8-yl]amino]-2-methylbenzoyl]piperazine-1-carbonyl]benzenesulfonic acid], under setting [1], the IC90 is 3.3 µM. `Cc1cc(Nc2nccn3c(-c4ccc(OC(F)F)cc4)cnc23)ccc1C(=O)N1CCN(C(=O)c2cccc(C(=O)O)c2)CC1` [Example 277, 3-[4-[4-[[3-[4-(difluoromethoxy)phenyl]imi-dazo[1,2-a]pyrazin-8-yl]amino]-2-methylbenzoyl]piperazine-1-carbonyl]benzoic acid]: the IC90 under setting [1] is 3.8 µM. On to `COc1ccc(-c2cnc3c(Nc4ccc(C(=O)N5CCC(C(=O)NC(CN(C)C)C(=O)O)CC5)c(C)c4)nccn23)cc1F` (stereo not drawn) [Example 278, 3-(dimethylamino)-2-[[1-[4-[[3-(3-fluoro-4-methoxyphenyl)imidazo[1,2-a]pyrazin-8-yl]amino]-2-methylbenzoyl]piperidine-4-carbonyl]amino]propanoic acid], for which the IC90 under setting [2] is 3.8 µM.

As for `Cc1cc(Nc2nccn3c(-c4ccc(OC(F)F)cc4)cnc23)ccc1C(=O)N1CCN(C(=O)c2ccc(C(=O)O)cc2)CC1` [Example 280, 4-[4-[4-[[3-[4-(difluoromethoxy)phenyl]imi-dazo[1,2-a]pyrazin-8-yl]amino]-2-methylbenzoyl]piperazine-1-carbonyl]benzoic acid], the IC90 under setting [1] was found to be 4.5 µM.

As to `Cc1cc(Nc2nccn3c(-c4ccc(OC(F)F)cc4)cnc23)ccc1C(=O)N1CCN(C(=O)CN(C)CC(=O)O)CC1` [Example 281, 2-[[2-[4-[4-[[3-[4-(difluoromethoxy)phenyl]imi-dazo[1,2-a]pyrazin-8-yl]amino]-2-methylbenzoyl]piperazin-1-yl]-2-oxoethyl]-methylamino]acetic acid], under setting [1], the IC90 was 4.7 µM. With `COc1ccc(-c2cnc3c(Nc4ccc(C(=O)N5CCC(C(=O)NCC6(O)CNC6)CC5)c(C)c4)nccn23)c(F)c1F` [Example 285, 1-[4-[[3-(2,3-difluoro-4-methoxyphenyl)imidazo[1,2-a]pyrazin-8-yl]amino]-2-methylbenzoyl]-N-[(3-hydroxyazetidin-3-yl)methyl]piperidine-4-carboxamide], the IC90 under setting [2] was determined as 0.071 µM. Turning to `COc1ccc(-c2cnc3c(Nc4ccc(C(=O)N5CCC(C(=O)NCC6(O)CCNC6)CC5)c(C)c4)nccn23)c(F)c1F` (stereo not drawn) [Example 286, 1-[4-[[3-(2,3-difluoro-4-methoxyphenyl)imidazo[1,2-a]pyrazin-8-yl]amino]-2-methylbenzoyl]-N-[(3-hydroxypyrrolidin-3-yl)methyl]piperidine-4-carboxamide; hydrochloride], the IC90 under setting [1] came out at 0.073 µM. Same read-out and setting: then `COc1ccc(-c2cnc3c(Nc4ccc(C(=O)N5CCC(C(=O)NCC(O)CN)CC5)c(C)c4)nccn23)c(F)c1F` (stereo not drawn) [Example 291, N-(3-amino-2-hydroxypropyl)-1-[4-[[3-(2,3-difluoro-4-methoxyphenyl)imidazo[1,2-a]pyrazin-8-yl]amino]-2-methylbenzoyl]piperidine-4-carboxamide; hydrochloride], with 0.11 µM.

As for `COc1ccc(-c2cnc3c(Nc4ccc(C(=O)N5CCC(C(=O)N6C[C@H](CO)[C@@H](O)[C@H](O)C6)CC5)c(C)c4)nccn23)c(F)c1F` [Example 296, [4-[[3-(2,3-difluoro-4-methoxyphenyl)imidazo[1,2-a]pyrazin-8-yl]amino]-2-methylphenyl]-[4-[(3R,4R,5R)-3,4-dihydroxy-5-(hydroxymethyl)piperidine-1-carbonyl]piperidin-1-yl]methanone], the IC90 under setting [2] was 0.18 µM.

Take `Cc1cc(Nc2nccn3c(-c4ccc(OC(F)F)cc4)cnc23)ccc1C(=O)N1CCC(C(=O)NC[C@H]2CNC(=O)O2)CC1` [Example 298, 1-[4-[[3-[4-(difluoromethoxy)phenyl]imi-dazo[1,2-a]pyrazin-8-yl]amino]-2-methylbenzoyl]-N-[[(5S)-2-oxo-1,3-oxazolidin-5-yl]methyl]piperidine-4-carboxamide]: the IC90 under setting [1] is 0.2 µM. Take `Cc1cc(Nc2nccn3c(-c4ccc(OC(F)F)cc4)cnc23)ccc1C(=O)N1CCC(C(=O)NCC(O)CN)CC1` (stereo not drawn) [Example 299, N-(3-amino-2-hydroxypropyl)-1-[4-[[3-[4-(difluoromethoxy)phenyl]imi-dazo[1,2-a]pyrazin-8-yl]amino]-2-methylbenzoyl]piperidine-4-carboxamide; hydrochloride]: the IC90 under setting [1] worked out at 0.2 µM.

With `COc1ccc(-c2cnc3c(Nc4ccc(C(=O)N5CCC(C(=O)NC[C@H](O)[C@@H](O)[C@H](O)[C@H](O)CO)CC5)c(C)c4)nccn23)c(F)c1F` [Example 300, 1-[4-[[3-(2,3-difluoro-4-methoxyphenyl)imidazo[1,2-a]pyrazin-8-yl]amino]-2-methylbenzoyl]-N-[(2S,3R,4R,5R)-2,3,4,5,6-pentahydroxyhexyl]piperidine-4-carboxamide], under setting [2], the IC90 came out at 0.21 µM. On to `Cc1cc(Nc2nccn3c(-c4ccc(OC(F)F)cc4)cnc23)ccc1C(=O)N1CCC(N(C)CCN(C)C)CC1` [Example 301, [4-[[3-[4-(difluoromethoxy)phenyl]imi-dazo[1,2-a]pyrazin-8-yl]amino]-2-methylphenyl]-[4-[2-(dimethylamino)ethyl-methylamino]piperidin-1-yl]methanone], for which the IC90 under setting [1] stood at 0.72 µM. With `COc1ccc(-c2cnc3c(Nc4ccc(C(=O)N5CCC(C(=O)NCCS(=O)(=O)O)CC5)c(C)c4)nccn23)cc1F` [Example 303, 2-[[1-[4-[[3-(3-fluoro-4-methoxyphenyl)imidazo[1,2-a]pyrazin-8-yl]amino]-2-methylbenzoyl]piperidine-4-carbonyl]amino]ethanesulfo-nic acid], the IC90 under setting [2] was 3.5 µM.

With `Cc1cc(Nc2nccn3c(-c4ccc(OCC#N)c(F)c4F)cnc23)ccc1C(=O)N1CCC(CCN)CC1` [Example 304, 2-[4-[8-[4-[4-(2-aminoethyl)piperidine-1-carbonyl]-3-methylanilino]imidazo[1,2-a]pyrazin-3-yl]-2,3-difluorophenoxy]acetonitrile], the IC90 under setting [2] was determined as 0.11 µM. Consider `C#CCOc1ccc(-c2cnc3c(Nc4ccc(C(=O)N5CCC(C(=O)NCCCNC)CC5)c(C)c4)nccn23)c(F)c1F` [Example 305, 1-[4-[[3-(2,3-difluoro-4-prop-2-ynoxyphenyl)imidazo[1,2-a]pyrazin-8-yl]amino]-2-methylbenzoyl]-N-[3-(methylamino)propyl]piperi-dine-4-carboxamide], for which the IC90 under setting [2] turned out to be 0.1 µM. Consider `Cc1cc(Nc2nccn3c(-c4ccc(OC(F)F)cc4)cnc23)ccc1C(=O)N1CCC(C(=O)NCC2CN(S(C)(=O)=O)C2)CC1` [Example 306, 1-[4-[[3-[4-(difluoromethoxy)phenyl]imi-dazo[1,2-a]pyrazin-8-yl]amino]-2-methylbenzoyl]-N-[(1-methylsulfonylazetidin-3-yl)methyl]piperidine-4-carboxamide], for which, under setting [1], the IC90 is 0.095 µM. As to `CNCC(=O)N1CCN(C(=O)c2ccc(Nc3nccn4c(-c5ccc(OC)c(F)c5Cl)cnc34)cc2C)CC1` [Example 307, 1-[4-[4-[[3-(2-chloro-3-fluoro-4-methoxyphenyl)imidazo[1,2-a]pyrazin-8-yl]amino]-2-methylbenzoyl]piperazin-1-yl]-2-(methylamino)ethanone; hy-drochloride], the IC90 under setting [2] was 0.097 µM. Take `CNCC(=O)N1CCN(C(=O)c2ccc(Nc3nccn4c(-c5ccc(OC)c(F)c5F)cnc34)cc2C)CC1` [Example 308, 1-[4-[4-[[3-(2,3-difluoro-4-methoxyphenyl)imidazo[1,2-a]pyrazin-8-yl]amino]-2-methylbenzoyl]piperazin-1-yl]-2-(methylamino)ethanone; hy-drochloride]: the IC90 under setting [2] turned out to be 0.11 µM.

Regarding `CCc1cc(Nc2nccn3c(-c4ccc(OCC#N)c(F)c4F)cnc23)ccc1C(=O)N1CCC(CCN)CC1` [Example 309, 2-[4-[8-[4-[4-(2-aminoethyl)piperidine-1-carbonyl]-3-ethylanilino]imidazo[1,2-a]pyrazin-3-yl]-2,3-difluorophenoxy]acetonitrile; formic acid], under setting [1], the IC90 was determined as 0.13 µM.
